Laboratory results taken from ChEMBL document CHEMBL6182913, “Design of Potent Small-Molecule Stimulator of Interferon Gene Inhibitor and Stimulator of Interferon Gene Mutant-Specific Degrader” (J Med Chem, 2025).

Tests used:
[1] = target: Stimulator of interferon genes protein (Homo sapiens, UniProt Q86WV6, G230A/R293Q/R71H); assay: Inhibition of cGAMP-induced STING HAQ mutant transfected in human THP1-Blue ISG cells preincubated with compound for 6 hrs followed by cGAMP addition and measured after 18 hrs by QUANTI-Blue based microplate reader analysis; type: cell-based
Chain of Stimulator of interferon genes protein (Q86WV6 whole entry R71H/G230A/R293Q): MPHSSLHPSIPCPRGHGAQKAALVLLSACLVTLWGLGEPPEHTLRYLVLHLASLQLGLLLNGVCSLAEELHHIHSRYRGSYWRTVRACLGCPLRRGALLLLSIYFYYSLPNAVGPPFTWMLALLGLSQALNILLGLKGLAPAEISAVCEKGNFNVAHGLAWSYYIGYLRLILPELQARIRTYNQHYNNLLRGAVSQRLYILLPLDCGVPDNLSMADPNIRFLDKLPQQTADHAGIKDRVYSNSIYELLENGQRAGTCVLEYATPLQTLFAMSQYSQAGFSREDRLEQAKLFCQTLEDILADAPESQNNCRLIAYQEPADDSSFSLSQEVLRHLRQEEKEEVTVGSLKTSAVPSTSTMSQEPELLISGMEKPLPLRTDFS

[2] = Cytotoxicity against human THP1-Blue ISG cells assessed as inhibition of cell growth at 10 uM incubated for 24 hrs by MTS assay relative to control; type: toxicity, cell-based
[3] = Metabolic stability in mouse plasma assessed as half life in presence of NADPH by LC-MS/MS analysis; type: ADME, cell-free

| Structure (SMILES) | IC50 [1] [µM] | half-life [3] [h] | inhibition at 24 h, 10 µM [2] [%] |
| --- | --- | --- | --- |
| CC(C)(C)c1ccc(N2C(=O)c3ccccc3C(C(N)=O)C2c2cc3cc(-c4ccc(C(=O)Nc5cc(-c6ccco6)n[nH]5)cc4)ccc3o2)cc1Cl (configuration not stated) | > 10 |  | 17.8 |
| CC(C)(C)c1ccc(N2C(=O)c3ccccc3C(C(N)=O)C2c2cc3cc(-c4ccc(C(=O)Nc5ccc(F)c(NS(C)(=O)=O)c5)cc4)ccc3o2)cc1Cl (configuration not stated) | > 10 |  | 26.8 |
| CC(=O)Nc1cc(NC(=O)c2ccc(Oc3ccc(C4C(C(N)=O)c5ccccc5C(=O)N4c4ccc(C(C)(C)C)c(Cl)c4)cc3)cc2)ccc1C (configuration not stated) | > 10 |  | 11.6 |

More lines, main results first:

| IC50 [1] [µM] | half-life [3] [h] | Structure (SMILES) | inhibition at 24 h, 10 µM [2] [%] |
| --- | --- | --- | --- |
| 5.8 |  | CC(C)(C)c1ccc(N2C(=O)c3ccccc3C(C(N)=O)C2c2cc3cc(-c4ccc(C(=O)Nc5ccc(O)c(NC(=O)C(F)(F)F)c5)cc4)ccc3o2)cc1Cl (configuration not stated) | 4.9 |
| > 10 |  | CC(C)(C)c1ccc(N2C(=O)c3ccccc3C(C(N)=O)C2c2cc3cc(-c4ncc(C(=O)Nc5ccc(O)c(NS(C)(=O)=O)c5)cn4)ccc3o2)cc1Cl (configuration not stated) | 20.4 |
| > 10 |  | CC(C)(C)c1ccc(N2C(=O)c3ccccc3C(C(=O)O)C2c2cc3cc(-c4ccc(C(=O)Nc5ccc(O)c(NS(C)(=O)=O)c5)cc4)ccc3s2)cc1Cl (configuration not stated) | 0 |
| 0.2 | > 4 | CCS(=O)(=O)Nc1cc(NC(=O)c2ccc(-c3ccc4oc(C5C(C(N)=O)c6ccccc6C(=O)N5c5ccc(C(C)(C)C)c(Cl)c5)cc4c3)cc2)ccc1O (configuration not stated) | 11.1 |
| 2.5 |  | CC(=O)Nc1cc(NC(=O)c2ccc(Oc3ccc(C4C(C(N)=O)c5ccccc5C(=O)N4c4ccc(C(C)(C)C)c(Cl)c4)cc3)cc2)ccc1O (configuration not stated) | 67.2 |
